Measurements from article PMC8286840, “Identifying SARS-CoV-2 antiviral compounds by screening for small molecule inhibitors of Nsp3 papain-like protease” (Biochemical Journal, 2021).
Counter-ions that a name gives are not always drawn. Like-named read-outs stand apart in the source and are kept apart here. Where a SMILES comes first, the peptide text is derived from it. [ ]: non-standard residue; d: D form. dPhe(4-Cl) = N[C@H](Cc1ccc(Cl)cc1)C(=O)O; d2Nal = N[C@H](Cc1ccc2ccccc2c1)C(=O)O; Lys(iPr) = CC(C)NCCCC[C@H](N)C(=O)O; NMeY = CN[C@@H](Cc1ccc(O)cc1)C(=O)O; d3Pal = N[C@H](Cc1cccnc1)C(=O)O

Columns and labels:
[1] = biological target: T1, SARS-CoV-2 PLpro (nsp3 1564–1878) (Severe acute respiratory syndrome coronavirus 2, UniProt P0DTD1); test: biochemical; set-up: FRET-quenched peptide (Pro3) cleavage by PLpro, 10 min pre-incubation, slope over 20 min, normalised to no-compound control; conditions: low concentration screen, read-out: % of control remaining
[2] = biological target: T1, SARS-CoV-2 PLpro (nsp3 1564–1878); test: biochemical; set-up: FRET-quenched peptide (Pro3) cleavage by PLpro, 10 min pre-incubation, slope over 20 min, normalised to no-compound control; conditions: high concentration screen, read-out: % of control remaining

COc1ccc(-c2ccc3c(N4CCOC[C@@H]4C)nc(N4CCOC[C@@H]4C)nc3n2)cc1CO [AZD8055]
remaining activity at 1.25 µM ([1]; Well no.=5293): 99.1% | remaining activity at 3.75 µM ([2]; Well no.=5293): 97.4%

Cc1cc(C(=O)NOCCO)c(Nc2ccc(I)cc2F)n(C)c1=O [AZD8330]
remaining activity at 1.25 µM ([1]; Well no.=5104): 107% | remaining activity at 3.75 µM ([2]; Well no.=5104): 106%

CC(C)C[C@H](CO)Nc1nc(S[C@@H](C)c2ccccc2)nc2nc(N)sc12 [AZD8797]
remaining activity at 1.25 µM ([1]; Well no.=8313): 103% | remaining activity at 3.75 µM ([2]; Well no.=8313): 103%

CNC(=O)CN1CCC(Oc2cc3c(Nc4cccc(Cl)c4F)ncnc3cc2OC)CC1 [AZD8931]
remaining activity at 1.25 µM ([1]; Well no.=5144): 103% | remaining activity at 3.75 µM ([2]; Well no.=5144): 102%

C[C@@H](Oc1cc(NS(=O)(=O)N2CCC2)nc(SCc2cccc(F)c2F)n1)[C@@H](O)CO [AZD-5069]
remaining activity at 1.25 µM ([1]; Well no.=8409): 102% | remaining activity at 3.75 µM ([2]; Well no.=8409): 101%

Cc1c2c(nn1C)CSCc1cc(n(C)n1)CSc1cc(c3ccccc3c1)OCCCc1c(C(=O)O)n(C)c3c-2c(Cl)ccc13 [AZD-5991]
remaining activity at 1.25 µM ([1]; Well no.=7076): 101% | remaining activity at 3.75 µM ([2]; Well no.=7076): 98.9%

Nc1nc(NC2CC2)c2ncn([C@H]3C=C[C@@H](CO)C3)c2n1 [Abacavir sulfate]
remaining activity at 1.25 µM ([1]; Well no.=5326): 97.2% | remaining activity at 3.75 µM ([2]; Well no.=5326): 95.9%

CC(=O)N[C@H](Cc1ccc2ccccc2c1)C(=O)N[C@H](Cc1ccc(Cl)cc1)C(=O)N[C@H](Cc1cccnc1)C(=O)N[C@@H](CO)C(=O)N(C)[C@@H](Cc1ccc(O)cc1)C(=O)N[C@H](CC(N)=O)C(=O)N[C@@H](CC(C)C)C(=O)N[C@@H](CCCCNC(C)C)C(=O)N1CCC[C@H]1C(=O)N[C@H](C)C(N)=O [Abarelix] (Ac-[d2Nal][dPhe(4-Cl)][d3Pal]S[NMeY][dN]L[Lys(iPr)]P[dA]-NH2)
remaining activity at 1.25 µM ([1]; Well no.=6560): 95.8% | remaining activity at 3.75 µM ([2]; Well no.=6560): 98.6%

C[C@]12CC[C@H](O)CC1=CC[C@@H]1[C@@H]2CC[C@]2(C)C(c3cccnc3)=CC[C@@H]12 [Abiraterone (CB-7598)]
remaining activity at 1.25 µM ([1]; Well no.=5047): 101% | remaining activity at 3.75 µM ([2]; Well no.=5047): 106%

CC(=O)O[C@H]1CC[C@@]2(C)C(=CC[C@@H]3[C@@H]2CC[C@]2(C)C(c4cccnc4)=CC[C@@H]32)C1 [Abiraterone Acetate (CB7630)]
remaining activity at 1.25 µM ([1]; Well no.=5274): 88.4% | remaining activity at 3.75 µM ([2]; Well no.=5274): 79.5%

CC(=O)N[C@@H](C)C(=O)O [Ac-Ala-OH]
remaining activity at 1.25 µM ([1]; Well no.=8696): 96.5% | remaining activity at 3.75 µM ([2]; Well no.=8696): 96.8%

COc1ccc(-c2cc(=O)c3c(O)cc(O)cc3o2)cc1 [Acacetine]
remaining activity at 1.25 µM ([1]; Well no.=3398): 94.2% | remaining activity at 3.75 µM ([2]; Well no.=3398): 92.9%

C[C@H]1O[C@H](O[C@H]2[C@H](O)[C@@H](O)[C@@H](O[C@H]3[C@H](O)[C@@H](O)C(O)O[C@@H]3CO)O[C@@H]2CO)[C@H](O)[C@@H](O)[C@@H]1N[C@H]1C=C(CO)[C@@H](O)[C@H](O)[C@H]1O (stereo partly drawn) [Acarbose]
remaining activity at 1.25 µM ([1]; Well no.=5149): 101% | remaining activity at 3.75 µM ([2]; Well no.=5149): 104%

CCCC(=O)Nc1ccc(OCC(O)CNC(C)C)c(C(C)=O)c1 (stereo not drawn) [Acebutolol (hydrochloride)]
remaining activity at 1.25 µM ([1]; Well no.=6747): 101% | remaining activity at 3.75 µM ([2]; Well no.=6747): 97.2%

O=C(O)COC(=O)Cc1ccccc1Nc1c(Cl)cccc1Cl [Aceclofenac]
remaining activity at 1.25 µM ([1]; Well no.=2071): 103% | remaining activity at 3.75 µM ([2]; Well no.=2071): 102%

Cn1c(=O)c2c(ncn2CC(=O)O)n(C)c1=O [Acefylline]
remaining activity at 1.25 µM ([1]; Well no.=8081): 102% | remaining activity at 1.25 µM ([1]; Well no.=8491): 105% | remaining activity at 3.75 µM ([2]; Well no.=8081): 100% | remaining activity at 3.75 µM ([2]; Well no.=8491): 103%

CC(=O)N[C@@H](CCC(N)=O)C(=O)O [Aceglutamide]
remaining activity at 1.25 µM ([1]; Well no.=7402): 106% | remaining activity at 3.75 µM ([2]; Well no.=7402): 102%

COc1ccc2c(c1)c(CC(=O)OCC(=O)O)c(C)n2C(=O)c1ccc(Cl)cc1 [Acemetacin]
remaining activity at 1.25 µM ([1]; Well no.=2037): 99.2% | remaining activity at 3.75 µM ([2]; Well no.=2037): 97.7%

CC1=CC(=O)NS(=O)(=O)O1 [Acesulfame Potassium]
remaining activity at 1.25 µM ([1]; Well no.=5318): 94.9% | remaining activity at 3.75 µM ([2]; Well no.=5318): 93.1%

CC(N)=O [Acetamide]
remaining activity at 1.25 µM ([1]; Well no.=7): 101% | remaining activity at 3.75 µM ([2]; Well no.=7): 101%

CC(=O)Nc1nnc(S(N)(=O)=O)s1 [Acetazolamide]
remaining activity at 1.25 µM ([1]; Well no.=163): 101% | remaining activity at 3.75 µM ([2]; Well no.=163): 103%

CC(=O)c1ccc(S(=O)(=O)NC(=O)NC2CCCCC2)cc1 [Acetohexamide]
remaining activity at 1.25 µM ([1]; Well no.=18): 93.4% | remaining activity at 3.75 µM ([2]; Well no.=18): 98.9%

CC(=O)OC(C)C[N+](C)(C)C (stereo not drawn) [Acetyl-beta-methylcholine chloride]
remaining activity at 1.25 µM ([1]; Well no.=107): 98.7% | remaining activity at 3.75 µM ([2]; Well no.=107): 98.4%

CC(=O)N[C@@H](CSC/C=C(\C)CC/C=C(\C)CCC=C(C)C)C(=O)O [Acetyl-farnesyl-cysteine]
remaining activity at 1.25 µM ([1]; Well no.=4342): 102% | remaining activity at 3.75 µM ([2]; Well no.=4342): 102%

CC(=O)OCC[N+](C)(C)C [Acetylcholine]
remaining activity at 1.25 µM ([1]; Well no.=1550): 96.7% | remaining activity at 3.75 µM ([2]; Well no.=1550): 98.7%

CC(=O)N[C@@H](CS)C(=O)O [Acetylcysteine]
remaining activity at 1.25 µM ([1]; Well no.=6161): 102% | remaining activity at 1.25 µM ([1]; Well no.=8266): 99.9% | remaining activity at 3.75 µM ([2]; Well no.=6161): 103% | remaining activity at 3.75 µM ([2]; Well no.=8266): 101%

CC(=O)Oc1ccccc1C(=O)O [Acetylsalicylic acid]
remaining activity at 1.25 µM ([1]; Well no.=161): 101% | remaining activity at 1.25 µM ([1]; Well no.=2067): 102% | remaining activity at 3.75 µM ([2]; Well no.=161): 97.3% | remaining activity at 3.75 µM ([2]; Well no.=2067): 103%

CC(=O)SCC[N+](C)(C)C [Acetylthiocholine chloride]
remaining activity at 1.25 µM ([1]; Well no.=257): 97.5% | remaining activity at 3.75 µM ([2]; Well no.=257): 99.3%

Cc1cnc(C(=O)O)c[n+]1[O-] [Acipimox]
remaining activity at 1.25 µM ([1]; Well no.=2069): 102% | remaining activity at 3.75 µM ([2]; Well no.=2069): 104%

COc1cc(C)c(/C=C/C(C)=C/C=C/C(C)=C/C(=O)O)c(C)c1C [Acitretin]
remaining activity at 1.25 µM ([1]; Well no.=1817): 96.4% | remaining activity at 3.75 µM ([2]; Well no.=1817): 96.3%

N[C@H](C(=O)O)[C@@H]1CC(Cl)=NO1 [Acivicin]
remaining activity at 1.25 µM ([1]; Well no.=3483): 96.9% | remaining activity at 3.75 µM ([2]; Well no.=3483): 97.4%

CC[C@@]1(O)C[C@H](O[C@H]2C[C@H](N(C)C)[C@H](O[C@H]3C[C@H](O)[C@H](O[C@H]4CCC(=O)[C@H](C)O4)[C@H](C)O3)[C@H](C)O2)c2c(cc3c(c2O)C(=O)c2c(O)cccc2C3=O)[C@H]1C(=O)OC [Aclarubicin]
remaining activity at 1.25 µM ([1]; Well no.=1573): 101% | remaining activity at 3.75 µM ([2]; Well no.=1573): 96.4%

O=C(O[C@H]1C[N+]2(CCCOc3ccccc3)CCC1CC2)C(O)(c1cccs1)c1cccs1 [Aclidinium (Bromide)]
remaining activity at 1.25 µM ([1]; Well no.=7336): 98% | remaining activity at 3.75 µM ([2]; Well no.=7336): 101%
